Assays:
HepG2 tumor cells [1] = test: confocal microscopy of LDLR-specific uptake of r-SiPcBOA-LDL; type: cell-based, human; details: same amount of dye alone as in r-SiPcBOA-LDL
Description: Confocal Microscopy Studies: For confocal microscopy studies, HepG2 cells were grown in 4-well Lab-Tek chamber slides (Naperville, Ill.) at a density of 40,000 cells/well. Experiments were started, after two quick washes with pre-incubation medium (medium with 0.8% (w/v) BSA instead of FBS), by the addition of pre-incubation medium containing the indicated amounts of r-SiPcBOA-LDL/AcLDL and/or unlabeled LDL. After a 4 h incubation at 37° C., the cells were washed three times with ice-cold PBS and fixed for 15 minutes with 3% formaldehyde in PBS at room temperature. Then the chamber slides were mounted and sealed for confocal microscopy analysis. Confocal microscopy was performed with a Leica TCS SPII laser scanning confocal microscope (Heidelberg, Germany). Filter settings were 633 nm for excitation and 638-800 nm for emission. Confocal Microscopy Studies of the LDLR-Specific Uptake: To visualize LDLR-mediated internalization of r-SiPcBOA-LDL, we performed laser scanning confocal microscopy studies on HepG2 tumor cells. […] To determine the specificity of this r-SiPcBOA-LDL toward LDLR, three sets of control experiments were performed.

HepG2 tumor cells [2] = test: laser scanning confocal microscopy of r-(Pyro-CE)-LDL uptake; type: cell-based, human; details: 20 μg/mL r-(Pyro-CE)-LDL, or same amount of Pyro-CE without reconstitution into LDL
Description: To visualize LDLR-mediated internalization of these NIRF/PDT agents into tumor cells, we performed laser scanning confocal microscopy studies on r-(Pyro-CE)-LDL in HepG2 tumor cells. Four sets of experiments were performed on a Leica TCS SPII laser scanning confocal microscope (Heidelberg, Germany). […] In a control experiment, HepG2 cells were incubated with native LDL but without the photosensitizer at 37° C. for 3 h to determine any possible background fluorescence. […] To determine the specificity of this LDL based photosensitizer toward LDL receptors, HepG2 cells were incubated with either a 25-fold excess of unlabeled LDL in addition to the 20 μg/mL r-(Pyro-CE)-LDL or with the same amount of Pyro-CE but without reconstitution of this agent into LDL.

| Substance | fluorescence signal (confocal) (HepG2 tumor cells [1]) | fluorescence signal (confocal) (HepG2 tumor cells [2]) |
| --- | --- | --- |
| tetra-t-butyl silicon phthalocyanine bisoleate [(tBu)4SiPcBOA] | did not lead to any observable fluorescence |  |
| pyropheophorbide cholesterol oleate [Pyro-CE] |  | No fluorescence |

From patent US20080253960A1, “Lipoprotein-Based Nanoplatforms” (The Trustees of the University of Pennsylvania Center for …, priority 2004, published 2008)
